Assay results: patent US20160355530A1, “HEPATITIS C INHIBITORS AND USES THEREOF” (AbbVie Inc., priority 2010, published 2016)
Like-named read-outs stand apart in the source and are kept apart here.

How the values were obtained:
[1] = system: HCV 1a-H77 subgenomic replicon; assay: microbe, parasite or virus in culture; assay type: cell-based, HCV genotype 1a; details: Hepatitis C virus, stable replicon
[2] = system: chimeric replicon with genotype 3a NS5B; assay: microbe, parasite or virus in culture; assay type: cell-based, HCV genotype 3a; details: Hepatitis C virus, read-out: 3a chimera 5% FBS EC50
[3] = target: T1, HCV NS5B polymerase 1b BK strain (Hepatitis C virus genotype 1b, UniProt P26663); assay: HCV NS5B polymerase enzymatic inhibition assay, strain 1b BK; assay type: biochemical
T1 construct: six-histidine tag; made in house; host or cells: E. coli
Method in brief: (§1)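 Recombinant NS5B (residues 1–570, His-tagged, E. coli-expressed) copied 5 nM of a 2.1 kb HCV 1b negative-strand 3′-end RNA template with 20 μM CTP, 20 μM ATP and 0.284 μM [3H]UTP for 3 h at 30 °C. Spermine-precipitated RNA was filter-captured and counted, and IC50 was fitted by nonlinear regression.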

[4] = system: chimeric replicon with genotype 4a NS5B; assay: microbe, parasite or virus in culture; assay type: cell-based, HCV genotype 4a; details: Hepatitis C virus, read-out: 4a chimera 5% FBS EC50
[5] = target: T2, HCV NS5B polymerase 1a-H77 (Hepatitis C virus genotype 1a, UniProt P27958); assay: biochemical; design: species or system HCV genotype 1a
T2 construct: six-histidine tag; made in house; host or cells: E. coli
Method in brief: as §1

[6] = target: T3, HCV NS5B polymerase 1a-H77-C316Y (Hepatitis C virus genotype 1a, UniProt P27958, C2736Y); assay: biochemical; design: species or system HCV genotype 1a
T3 construct: six-histidine tag; made in house; host or cells: E. coli
Method in brief: as §1

[7] = system: HCV NS5B polymerase 1a-H77-C316Y; assay: biochemical; design: species or system HCV genotype 1a; details: ratio of enzyme IC50s, 1a H77-C316Y / 1a H77
Method in brief: as §1

[8] = system: HCV 1b-BB7 subgenomic replicon; assay: microbe, parasite or virus in culture; assay type: cell-based, HCV genotype 1b; details: Hepatitis C virus, stable replicon
[9] = system: chimeric replicon with 2a-J6CF-derived NS5B; assay: microbe, parasite or virus in culture; assay type: cell-based, HCV genotype 2a; details: Hepatitis C virus, read-out: 2a chimera 5% FBS EC50
[10] = system: chimeric replicon with genotype 2b NS5B; assay: microbe, parasite or virus in culture; assay type: cell-based, HCV genotype 2b; details: Hepatitis C virus, read-out: 2b chimera 5% FBS EC50
[11] = 5% FBS, absence of human plasma, read-out: Stable Replicon 1a H77 5% FBS EC50
[12] = strain 1a H77, 5% FBS + 40% human plasma, read-out: 1a H77 5% FBS + 40% Human Plasma EC50
[13] = strain 1a H77, 5% FBS, no human plasma, read-out: 1a H77 5% FBS EC50
[14] = strain 1a H77, 5% FBS, read-out: 1a H77 5% FBS EC50
[15] = enzyme, strain 1b BK, read-out: HCV Polymerase Strain 1b BK IC50
[16] = enzyme, strain 1a H77, read-out: HCV Polymerase Strain 1a H77 IC50
[17] = strain 1b BB7, 5% FBS + 40% human plasma, read-out: 1b BB7 5% FBS + 40% Human Plasma EC50
[18] = strain 1b BB7, 5% FBS, no human plasma, read-out: 1b BB7 5% FBS EC50
[19] = strain 1b BB7, 5% FBS, read-out: 1b BB7 5% FBS EC50

T1 sequence (P26663 2420-2989): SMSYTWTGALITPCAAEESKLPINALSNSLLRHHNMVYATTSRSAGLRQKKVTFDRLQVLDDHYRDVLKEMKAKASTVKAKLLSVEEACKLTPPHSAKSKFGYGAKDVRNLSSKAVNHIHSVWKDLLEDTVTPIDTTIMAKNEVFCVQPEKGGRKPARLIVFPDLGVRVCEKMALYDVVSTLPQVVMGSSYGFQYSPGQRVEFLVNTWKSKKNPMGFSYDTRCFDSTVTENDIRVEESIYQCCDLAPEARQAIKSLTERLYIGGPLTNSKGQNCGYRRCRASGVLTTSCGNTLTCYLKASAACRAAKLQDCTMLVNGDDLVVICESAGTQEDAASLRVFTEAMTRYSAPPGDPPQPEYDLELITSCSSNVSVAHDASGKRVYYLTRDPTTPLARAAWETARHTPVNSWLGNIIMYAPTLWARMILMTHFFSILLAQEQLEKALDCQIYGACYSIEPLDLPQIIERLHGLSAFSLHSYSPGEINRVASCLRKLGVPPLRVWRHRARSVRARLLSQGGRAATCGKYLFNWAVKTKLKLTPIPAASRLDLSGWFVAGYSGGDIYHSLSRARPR
T3 sequence (P27958 2421-2990 C2736Y): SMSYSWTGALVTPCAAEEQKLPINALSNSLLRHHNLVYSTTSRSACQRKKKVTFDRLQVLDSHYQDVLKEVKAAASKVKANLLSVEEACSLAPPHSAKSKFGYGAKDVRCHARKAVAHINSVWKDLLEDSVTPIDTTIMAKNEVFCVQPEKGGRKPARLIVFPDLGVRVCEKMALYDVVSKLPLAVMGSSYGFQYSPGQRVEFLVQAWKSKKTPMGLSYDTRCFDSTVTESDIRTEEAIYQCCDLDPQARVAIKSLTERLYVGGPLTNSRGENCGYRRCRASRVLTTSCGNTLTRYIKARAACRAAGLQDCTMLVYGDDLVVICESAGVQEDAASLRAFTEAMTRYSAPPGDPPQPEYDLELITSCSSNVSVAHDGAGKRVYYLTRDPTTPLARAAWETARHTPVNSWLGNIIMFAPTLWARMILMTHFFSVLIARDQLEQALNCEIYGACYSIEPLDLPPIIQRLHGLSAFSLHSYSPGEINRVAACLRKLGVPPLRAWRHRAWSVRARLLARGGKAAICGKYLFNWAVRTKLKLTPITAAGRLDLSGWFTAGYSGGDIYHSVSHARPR
T2 sequence (P27958 2421-2990): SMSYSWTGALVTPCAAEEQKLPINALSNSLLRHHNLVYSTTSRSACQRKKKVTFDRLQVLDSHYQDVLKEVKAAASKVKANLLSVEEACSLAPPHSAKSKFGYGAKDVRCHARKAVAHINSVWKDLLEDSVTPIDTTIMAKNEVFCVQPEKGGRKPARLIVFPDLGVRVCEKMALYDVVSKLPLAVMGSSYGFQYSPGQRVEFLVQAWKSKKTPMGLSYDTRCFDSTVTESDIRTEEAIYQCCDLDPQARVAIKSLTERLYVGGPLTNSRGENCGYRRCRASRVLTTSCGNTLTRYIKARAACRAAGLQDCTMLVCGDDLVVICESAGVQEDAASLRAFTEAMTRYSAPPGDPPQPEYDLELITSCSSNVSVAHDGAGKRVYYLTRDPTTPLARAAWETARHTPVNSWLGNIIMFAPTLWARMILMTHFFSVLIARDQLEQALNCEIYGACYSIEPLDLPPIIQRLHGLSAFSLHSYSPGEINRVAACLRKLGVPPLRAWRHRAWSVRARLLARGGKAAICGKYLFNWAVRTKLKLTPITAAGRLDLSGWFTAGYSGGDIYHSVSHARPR

Compound	EC50 [1, 11]	EC50 [1, 12]	EC50 [1, 13]	EC50 [1, 14]	EC50 [2]	IC50 [3, 15]	EC50 [4]	IC50 [5, 16]	IC50 [6]	C316Y/1a Fold Resistance [7]	EC50 [8, 17]	EC50 [8, 18]	EC50 [8, 19]	EC50 [9]	EC50 [10]	IC50 [3]	IC50 [5]
CS(=O)(=O)N(Cc1cnc(-c2ccc3[nH]ccc3c2)s1)c1ccc2c(-c3ncc[nH]3)c(-c3ccccc3)oc2c1 [Example 23, N-[3-(1H-imidazol-2-yl)-2-phenyl-1-benzofuran-6-yl]-N-{[2-(1H-indol-5-yl)-1,3-thiazol-5-yl]methyl}methanesulfonamide]	230 nM	10000 nM	230 nM	230 nM	17.3 nM	10 nM	313 nM	3.9 nM	27 nM	7 fold	9240 nM	26.4 nM	26.4 nM	41.6 nM	281 nM		
C[S+]([O-])c1ccc(-c2ncc(CN(c3ccc4c(-c5ncc[nH]5)c(-c5ccccc5)oc4c3)S(C)(=O)=O)s2)cc1 (stereo not shown) [Example 24, N-[3-(1H-imidazol-2-yl)-2-phenyl-1-benzofuran-6-yl]-N-({2-[4-(methylsulfinyl)phenyl]-1,3-thiazol-5-yl}methyl)methanesulfonamide]	157 nM	10000 nM	157 nM	157 nM	5.4 nM	18 nM	362 nM	6.9 nM	36 nM	5 fold	3850 nM	12.4 nM	12.4 nM	206 nM	193 nM		
Cn1ccc2cc(-c3ncc(CN(c4ccc5c(-c6ncc[nH]6)c(-c6ccccc6)oc5c4)S(C)(=O)=O)s3)ccc21 [Example 25, N-[3-(1H-imidazol-2-yl)-2-phenyl-1-benzofuran-6-yl]-N-{[2-(1-methyl-1H-indol-5-yl)-1,3-thiazol-5-yl]methyl}methanesulfonamide]	266 nM	10000 nM	266 nM	266 nM	10.7 nM	15 nM	452 nM	6.3 nM	43 nM	7 fold	10000 nM	8.2 nM	8.2 nM	108 nM	382 nM		
Cn1cc(-c2ncc(CN(c3ccc4c(-c5ncc[nH]5)c(-c5ccccc5)oc4c3)S(C)(=O)=O)s2)cn1 [Example 26, N-[3-(1H-imidazol-2-yl)-2-phenyl-1-benzofuran-6-yl]-N-{[2-(1-methyl-1H-pyrazol-4-yl)-1,3-thiazol-5-yl]methyl}methanesulfonamide]	343 nM	10000 nM	343 nM	343 nM	5.2 nM	10 nM	377 nM	12 nM	30 nM	3 fold	5450 nM	15 nM	15 nM	277 nM	497 nM		
CS(=O)(=O)N(Cc1cnc(-c2cccc(CO)c2)s1)c1ccc2c(-c3ncc[nH]3)c(-c3ccccc3)oc2c1 [Example 28, N-({2-[3-(hydroxymethyl)phenyl]-1,3-thiazol-5-yl}methyl)-N-[3-(1H-imidazol-2-yl)-2-phenyl-1-benzofuran-6-yl]methanesulfonamide]	405 nM	10000 nM	405 nM	405 nM	14.3 nM	12 nM	378 nM	5.9 nM	28 nM	5 fold	10000 nM	24.1 nM	24.1 nM	234 nM	561 nM		
CS(=O)(=O)N(CCCN)c1cc2oc(-c3ccc(F)cc3)c(-c3ncc[nH]3)c2cc1C1CC1 [Example 112, N-(3-aminopropyl)-N-[5-cyclopropyl-2-(4-fluorophenyl)-3-(1H-imidazol-2-yl)-1-benzofuran-6-yl]methanesulfonamide]	262 nM	1030 nM	262 nM	262 nM		51 nM		10.6 nM	868 nM	82 fold	101 nM	34 nM	34 nM				
CS(=O)(=O)N(CCCN1CCCCC1)c1cc2oc(-c3ccc(F)cc3)c(C3=NOCCN3)c2cc1C1CC1 [Example 130, N-[5-cyclopropyl-3-(5,6-dihydro-4H-1,2,4-oxadiazin-3-yl)-2-(4-fluorophenyl)-1-benzofuran-6-yl]-N-[3-(piperidin-1-yl)propyl]methanesulfonamide]	44.2 nM	296 nM	44.2 nM	44.2 nM	42.6 nM	229 nM	416 nM	20.5 nM	412 nM	20 fold	110 nM	26 nM	26 nM	74 nM			
COc1ccc(CN(c2cc3oc(-c4ccc(F)cc4)c(-c4nc(Cl)c[nH]4)c3cc2C2CC2)S(C)(=O)=O)cc1 [Example 159, N-[3-(4-chloro-1H-imidazol-2-yl)-5-cyclopropyl-2-(4-fluorophenyl)-1-benzofuran-6-yl]-N-(4-methoxybenzyl)methanesulfonamide]	990 nM	10000 nM	990 nM	990 nM		438 nM		45 nM	8000 nM	178 fold	10000 nM	544 nM	544 nM				
CC(C)CCN(c1cc2oc(-c3ccc(F)cc3)c(-c3nccc(=O)[nH]3)c2cc1C1CC1)S(C)(=O)=O [Example 161, N-[5-cyclopropyl-2-(4-fluorophenyl)-3-(6-oxo-1,6-dihydropyrimidin-2-yl)-1-benzofuran-6-yl]-N-(3-methylbutyl)methanesulfonamide]	124 nM	7910 nM	124 nM	124 nM		791 nM		47.5 nM	219 nM	5 fold	10000 nM	188 nM	188 nM				
COc1ccc(CN(c2cc3oc(-c4ccc(F)cc4)c(-c4ncc[nH]4)c3cc2OC(C)C)S(C)(=O)=O)cc1 [Example 170, N-[2-(4-fluorophenyl)-3-(1H-imidazol-2-yl)-5-isopropoxy-1-benzofuran-6-yl]-N-(4-methoxybenzyl)methanesulfonamide]	540 nM		540 nM	540 nM		338 nM		36 nM	20000 nM	556 fold		121 nM	121 nM				
COc1ccc(CN(c2cc3oc(-c4ccc(F)cc4)c(-c4ncc(C)[nH]4)c3cc2C2CC2)S(C)(=O)=O)cc1 [Example 188, N-[5-cyclopropyl-2-(4-fluorophenyl)-3-(5-methyl-1H-imidazol-2-yl)-1-benzofuran-6-yl]-N-(4-methoxybenzyl)methanesulfonamide]	399 nM	8460 nM	399 nM	399 nM		55 nM		15.4 nM	224 nM	15 fold	2030 nM	208 nM	208 nM				
CS(=O)(=O)N(Cc1cc(O)no1)c1cc2oc(-c3ccc(F)cc3)c(-c3ncc[nH]3)c2cc1C1CC1 [Example 190, N-[5-cyclopropyl-2-(4-fluorophenyl)-3-(1H-imidazol-2-yl)-1-benzofuran-6-yl]-N-[(3-hydroxy-1,2-oxazol-5-yl)methyl]methanesulfonamide]	263 nM	3460 nM		263 nM					500 nM	112 fold	1370 nM		116 nM			26 nM	4.5 nM
